The values below come from PMC6476181 (ChemMedChem, 2019).

Data set [1] has as its system 57 diverse kinases. In words: Kinase selectivity panel of 57 diverse kinases. Format: biochemical. As to conditions: 10 µM.
Data set [2] relates to cancer cell motility and migration. Briefly: Wound scratch assay. In kind it is cell-based.
Data set [3] relates to proliferation and viability of cells. Briefly: Trypan blue exclusion, cells treated for 3 days. As to conditions: comparison against genistein at 10 µM, p < 0.05. Format: cell-based.
Data set [4] addresses T1, MEK4 (Homo sapiens, UniProt P45985).
T1 sequence (P45985 1-399): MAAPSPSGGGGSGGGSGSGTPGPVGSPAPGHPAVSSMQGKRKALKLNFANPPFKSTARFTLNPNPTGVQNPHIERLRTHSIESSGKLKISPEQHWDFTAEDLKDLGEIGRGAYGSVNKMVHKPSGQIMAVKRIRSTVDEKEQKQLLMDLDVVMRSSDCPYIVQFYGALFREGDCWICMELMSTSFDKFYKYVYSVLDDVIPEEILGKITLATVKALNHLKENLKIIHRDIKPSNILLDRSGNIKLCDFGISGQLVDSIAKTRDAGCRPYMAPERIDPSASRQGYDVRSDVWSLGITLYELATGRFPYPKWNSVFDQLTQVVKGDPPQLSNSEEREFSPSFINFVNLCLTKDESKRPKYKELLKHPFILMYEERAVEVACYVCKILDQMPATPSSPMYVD
As to conditions: cited from earlier work.

Data set [5] deals with T2, MEK7 (Homo sapiens, UniProt O14733).
T2 sequence (O14733 1-419): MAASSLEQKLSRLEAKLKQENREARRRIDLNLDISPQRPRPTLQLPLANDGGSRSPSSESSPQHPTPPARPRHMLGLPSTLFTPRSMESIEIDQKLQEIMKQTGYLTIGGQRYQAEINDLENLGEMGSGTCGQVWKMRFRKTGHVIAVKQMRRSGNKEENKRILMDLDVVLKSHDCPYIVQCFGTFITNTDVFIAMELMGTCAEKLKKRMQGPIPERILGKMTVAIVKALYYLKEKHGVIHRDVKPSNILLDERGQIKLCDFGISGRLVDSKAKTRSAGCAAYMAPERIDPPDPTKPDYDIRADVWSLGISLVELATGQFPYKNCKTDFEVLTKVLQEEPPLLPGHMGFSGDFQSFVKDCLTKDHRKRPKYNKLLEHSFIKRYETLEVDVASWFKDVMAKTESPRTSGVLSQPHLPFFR
As to conditions: cited from earlier work.

For data set [6], the system named is Cot. As to conditions: ref 10a; cited from earlier work.
Data set [7] deals with T1, MEK4. Briefly: TR-FRET displacement of active site tracer. Format: binding. As to conditions: 10 µM. On the technique in general: Time-resolved FRET reads energy transfer from a long-lived donor to a nearby acceptor.

`O=C(O)c1ccc(-c2n[nH]c3cc(F)ccc23)cc1` [Compound 6ff, 4-(6-fluoro-2H-indazol-3-yl)benzoic acid]: the “number of kinases inhibited > 35% out of 57 tested” value in data set [1] turned out to be 12. Besides, the “S(35) value” in data set [1] (57 kinases) is given as 0.21. The “efficacy in wound scratch assay” value in data set [2] (10 µM) and in data set [2] (25 µM) was “no efficacy” throughout. Also, the “toxicity (proliferation and viability, trypan blue exclusion)” value in data set [3] is “less toxicity compared to the promiscuous kinase inhibitor genistein”.
Regarding `COc1ccc2c(Cc3ccc(O[Si](C)(C)C(C)(C)C)cc3)c3[n+](cc2c1OC)CCc1cc2c(cc1-3)OCO2` [HWY336], in data set [4], the “inhibition of MEK4” value is “inhibits both MEK4 and MEK7”. In data set [5], the “inhibition of MEK7” value was “inhibits both MEK4 and MEK7”.
Regarding `O=c1c(-c2ccc(O)c(O)c2)coc2cc(O)ccc12` [THIF, 7, 3’, 4’-trihydroxyisoflavone], the “inhibition of Cot activity” value in data set [6] is given as “inhibits Cot activity”.
Regarding `CN[C@@H]1C[C@H]2O[C@@](C)([C@@H]1OC)n1c3ccccc3c3c4c(c5c6ccccc6n2c5c31)C(=O)NC4` [staurosporine], in data set [7], the “TR-FRET ratio, displacement of tracer bound to MEK4 active site” value is “background levels”.
